In the test the test system is rumen microbes. The test can be described thus: microbial protein synthesis, 15N batch culture (Example 4). The note with it: 24 hours of incubation. It counts as cell-based, Angus crossbred steers. The protocol: The in vitro incubations were conducted on three separate days (replicates). A representative sample of digesta was collected from different places in the rumen of ruminally cannulated steers and strained through 4 layers of cheesecloth, placed in pre-warmed thermos containers, and transported to the laboratory within 30 minutes after the collection. In the laboratory, the ruminal fluid from the two steers was maintained under constant CO2-flux and was combined in equal proportions. This combined ruminal fluid was mixed with McDougall's buffer (McDougall, 1948) with and without 0.077 g/liter of 10 wt. % ammonium sulfate enriched with ^15N in relation 1:4, and it was used as an inoculum. Two bottles of 500 ml fitted with a side arm and a rubber septum were incubated per treatment. […] At the end of the 24 hours incubation, the final pH was recorded, the bottles were placed on ice to prevent further microbial fermentation and two 10-ml samples were collected and acidified by adding 20 μl of a 20 vol/vol % of H2SO4-solution and were frozen at minus 20° C. until further analysis. […]
The total nitrogen (N) and the isotopic supplement were measured in the whole content and the bacterial pellet by an isotopic ratio mass spectrometry using a Vario Micro cube from Elementar Analyzer System GmbH. […]

One compound from patent US20250161245A1, “A MIXTURE OF UREA, BIURET AND N-CONTAINING BY-PRODUCTS CREATED DURING BIURET PRODUCTION AS A DIETARY NON-PROTEIN NITROGEN-SOURCE FOR RUMINANTS AND USES THEREOF” (Yara International ASA, priority 2022, published 2025) can be followed below.

`NC(N)=O` [Urea, urea]: the “Bacteria N” value was 67.34 mg and the EMPS is listed as 34.46 g of bacteria N/kg of OM truly digested.
